Reference: patent US4753953A, “Pyridonecarboxylic acid derivatives and antibacterial pharmaceutical compositions thereof” (priority 1985, dated 1988)

Assays:
Pst. micros UPI 5464-1 = experiment: MIC, in vitro antibacterial activity (standard strains); assay type: cell-based; conditions: 10^6 cells/ml; Gram +
P. aeruginosa IFO 12689 = experiment: as above; assay type: cell-based, Pseudomonas aeruginosa; conditions: 10^6 cells/ml; Gram -
[1] = test system: Peptococcus magnus KY 017; experiment: as above; assay type: cell-based; conditions: 10^6 cells/ml; Gram +
[2] = test system: Staphylococcus aureus 209 P; experiment: as above; assay type: cell-based; conditions: 10^6 cells/ml; Gram +
[3] = test system: Peptostreptococcus anaerobius KYA 27337; experiment: as above; assay type: cell-based; conditions: 10^6 cells/ml; Gram +
B. distasonis 8503 = experiment: as above; assay type: cell-based; conditions: 10^6 cells/ml; Gram -
P. cepacia GIFU 518 = experiment: as above; assay type: cell-based; conditions: 10^6 cells/ml; Gram -
B. fragilis 25285 = experiment: as above; assay type: cell-based, Bacteroides fragilis; conditions: 10^6 cells/ml; Gram -
[4] = test system: Escherichia coli NIHJ JC-2; experiment: as above; assay type: cell-based; conditions: 10^6 cells/ml; Gram -
P. maltophilia GIFU 2491 = experiment: as above; assay type: cell-based; conditions: 10^6 cells/ml; Gram -
P. mirabilis IID 994 = experiment: as above; assay type: cell-based; conditions: 10^6 cells/ml; Gram -
[5] = test system: Serratia marcescens IID 618; experiment: as above; assay type: cell-based; conditions: 10^6 cells/ml; Gram -
B. fragilis 0558 = experiment: as above; assay type: cell-based, Bacteroides fragilis; conditions: 10^6 cells/ml; Gram -
[6] = test system: Pseudomonas aeruginosa V-1; experiment: as above; assay type: cell-based; conditions: 10^6 cells/ml; Gram -
[7] = test system: Citrobacter freundii IID 976; experiment: as above; assay type: cell-based; conditions: 10^6 cells/ml; Gram -
[8] = test system: Enterobacter cloacae IID 977; experiment: as above; assay type: cell-based; conditions: 10^6 cells/ml; Gram -
[9] = test system: Bacteroides fragilis GM 7000; experiment: as above; assay type: cell-based; conditions: 10^6 cells/ml; Gram -
[10] = test system: Veillonella parvula KYA 10790; experiment: as above; assay type: cell-based; conditions: 10^6 cells/ml; Gram -
C. perfringens KYA 13123 = experiment: microbe, parasite or virus in culture; assay type: cell-based; conditions: 10^6 cells/ml; Gram +
F. varium KYA 8501 = experiment: MIC, in vitro antibacterial activity (standard strains); assay type: cell-based; conditions: 10^6 cells/ml; Gram -
P. aeruginosa IID 1210 = experiment: as above; assay type: cell-based, Pseudomonas aeruginosa; conditions: 10^6 cells/ml; Gram -
S. pneumoniae IID 552 = experiment: as above; assay type: cell-based; conditions: 10^6 cells/ml; Gram +
[11] = test system: B. thetaiotaomicron (0661); experiment: as above; assay type: cell-based; conditions: 10^6 cells/ml; Gram -
C. ramosum = experiment: as above; assay type: cell-based; conditions: 10^6 cells/ml; Gram +
[12] = test system: Eubacterium lentum GAI 5242; experiment: as above; assay type: cell-based; conditions: 10^6 cells/ml; Gram +
[13] = test system: Acinetobacter anitratus IID 876; experiment: as above; assay type: cell-based; conditions: 10^6 cells/ml; Gram -
F. necrophorum S-45 = experiment: as above; assay type: cell-based; conditions: 10^6 cells/ml; Gram -
[14] = test system: Bacillus subtilis PCI 219; experiment: as above; assay type: cell-based; conditions: 10^6 cells/ml; Gram +
[15] = test system: Propionibacterium acens 11828; experiment: as above; assay type: cell-based; conditions: 10^6 cells/ml; Gram +
[16] = test system: Proteus vulgaris IFO 3167; experiment: as above; assay type: cell-based; conditions: 10^6 cells/ml; Gram -
[17] = test system: Yersinia enterocolitica IID 981; experiment: as above; assay type: cell-based; conditions: 10^6 cells/ml; Gram -
[18] = test system: Klebsiella pneumoniae KY(GN)6445; experiment: as above; assay type: cell-based; conditions: 10^6 cells/ml; Gram -
E. faecalis IID 682 = experiment: as above; assay type: cell-based; conditions: 10^6 cells/ml; Gram +
S. aureus Smith = experiment: as above; assay type: cell-based, Staphylococcus aureus; conditions: 10^6 cells/ml; Gram +
S. pyogenes IID 692 = experiment: as above; assay type: cell-based, Streptococcus pyogenes; conditions: 10^6 cells/ml; Gram +
E. coli ATCC 10536 = experiment: as above; assay type: cell-based, Escherichia coli; conditions: 10^6 cells/ml; Gram -
S. epidermidis IID 866 = experiment: as above; assay type: cell-based; conditions: 10^6 cells/ml; Gram +
K. pneumoniae 1-220S = experiment: as above; assay type: cell-based, Klebsiella pneumoniae; conditions: 10^6 cells/ml; Gram -
E. limosum KYA 8486 = experiment: as above; assay type: cell-based; conditions: 10^6 cells/ml; Gram +
[19] = test system: Morganella morganii IID 602; experiment: as above; assay type: cell-based; conditions: 10^6 cells/ml; Gram -
[20] = test system: Alcaligenes faecalis 0114002; experiment: as above; assay type: cell-based; conditions: 10^6 cells/ml; Gram -
[21] = test system: Streptococcus pyogenes (S-8); experiment: as above; assay type: cell-based; conditions: 10^6 cells/ml; Gram +
B. vulgatus KYA 29327 = experiment: as above; assay type: cell-based; conditions: 10^6 cells/ml; Gram -
[22] = test system: Fusobacterium mortiferum 4249; experiment: as above; assay type: cell-based; conditions: 10^6 cells/ml; Gram -
Shigella sonnei IID 969 = experiment: as above; assay type: cell-based; conditions: 10^6 cells/ml; Gram -
Experimental: Minimal inhibitory concentrations (MICs) were determined in accordance with the method recommended by Japan Society of Chemotherapy.

E. coli ML 4707 = experiment: as above; assay type: cell-based, Escherichia coli; conditions: 10^6 cells/ml; Gram -; Table 1
[23] = test system: S. aureus IID 670 (Terajima); experiment: as above; assay type: cell-based, Staphylococcus aureus; conditions: 10^6 cells/ml; Gram +
[24] = test system: Salmonella enteritidis IID 604; experiment: as above; assay type: cell-based; conditions: 10^6 cells/ml; Gram -

## 7-(3-Aminomethyl-4-methyl-1-pyrrolidinyl)-1-cyclopropyl-6,8-difluoro-1,4-dihydro-4-oxo-3-quinolinecarboxylic acid [Example 2]
Pst. micros UPI 5464-1
  MIC: 0.39 µg/mL
P. aeruginosa IFO 12689
  MIC: 0.78 µg/mL
[1]
  MIC: 0.20 µg/mL
[2]
  MIC: 0.025 µg/mL
[3]
  MIC: 0.10 µg/mL
B. distasonis 8503
  MIC: 3.13 µg/mL
P. cepacia GIFU 518
  MIC: 0.39 µg/mL
B. fragilis 25285
  MIC: 0.39 µg/mL
[4]
  MIC: 0.025 µg/mL
P. maltophilia GIFU 2491
  MIC: 0.20 µg/mL
P. mirabilis IID 994
  MIC: 0.05 µg/mL
[5]
  MIC: 0.10 µg/mL
B. fragilis 0558
  MIC: 0.39 µg/mL
[6]
  MIC: 0.10 µg/mL
[7]
  MIC: 0.05 µg/mL
[8]
  MIC: 0.05 µg/mL
[9]
  MIC: 0.78 µg/mL
[10]
  MIC: 0.39 µg/mL
C. perfringens KYA 13123
  MIC: 0.20 µg/mL
F. varium KYA 8501
  MIC: 0.78 µg/mL
P. aeruginosa IID 1210
  MIC: 0.78 µg/mL
S. pneumoniae IID 552
  MIC: 0.05 µg/mL
[11]
  MIC: 0.78 µg/mL
C. ramosum
  MIC: 0.78 µg/mL
[12]
  MIC: 0.78 µg/mL
[13]
  MIC: 0.05 µg/mL
F. necrophorum S-45
  MIC: 0.39 µg/mL
[14]
  MIC: 0.0125 µg/mL
[15]
  MIC: 0.39 µg/mL
[16]
  MIC: 0.05 µg/mL
[17]
  MIC: 0.05 µg/mL
[18]
  MIC: 0.05 µg/mL
E. faecalis IID 682
  MIC: 0.10 µg/mL
S. aureus Smith
  MIC: 0.025 µg/mL
S. pyogenes IID 692
  MIC: 0.05 µg/mL
E. coli ATCC 10536
  MIC: 0.025 µg/mL
S. epidermidis IID 866
  MIC: 0.025 µg/mL
K. pneumoniae 1-220S
  MIC: 0.05 µg/mL
E. limosum KYA 8486
  MIC: 1.56 µg/mL
[19]
  MIC: 0.10 µg/mL
[20]
  MIC: 0.20 µg/mL
[21]
  MIC: 0.05 µg/mL
B. vulgatus KYA 29327
  MIC: 0.78 µg/mL
[22]
  MIC: 0.39 µg/mL
Shigella sonnei IID 969
  MIC: 0.025 µg/mL
E. coli ML 4707
  MIC: 0.025 µg/mL
[23]
  MIC: 0.025 µg/mL
[24]
  MIC: 0.05 µg/mL
